Reference: publication PMC12210405, “Identification of chemical scaffolds for targeting ubiquitin-specific protease 11 (USP11) through high-throughput virtual screening” (Journal of Enzyme Inhibition and Medicinal Chemistry, 2025)

Tests used:
GST-USP11 [1] = biological target: T1, GST-USP11 (Homo sapiens, UniProt P51784); test: Fluorescence-based deubiquitinating enzyme activity assay (Ub-AMC fluorogenic substrate); format: biochemical; conditions: for inhibition at 25 µM: read-out: Percent inhibition of USP11
T1 construct: The plasmids containing the intact USP11 gene were introduced into E. coli BL21-CodonPlus (DE3); made in house; host or cells: E. coli BL21-CodonPlus (DE3)
Text: The deubiquitinating enzyme (DUB) activity of USP11 was monitored using Ubiquitin AMC (Ub-AMC) (#U-550–050, R&D Systems, Minneapolis, MN, USA) as a fluorogenic substrate. […] USP11 DUB activity of vehicle control or each compound group was quantified by calculating the area under curve (AUC) using Prism 9 software (GraphPad, Boston, MA, USA).
Using a -fluorogenic substrate assay with ubiquitin 7-amido-4-methylcoumarin (Ub-AMC), we tested varying concentrations of both the protein and the substrate. […] Hits were defined as compounds that inhibited enzyme activity by more than 40%, as determined by fluorescence intensity at the 90-min endpoint.

GST-USP11 [2] = biological target: T1, GST-USP11; test: Biolayer interferometry (BLI) assay; format: binding
Method: The binding affinities of tested compounds for USP11 were determined using BRAND® microplates (#BR781608, Merck, Darmstadt, Germany) and an Octet® R8 system (Sartorius AG, Göttingen, Germany). Octet GST Biosensors (#18–5096, Sartorius AG, Göttingen, Germany) captured with purified GST-USP11 (50 μg/ml) or without proteins were used as ligand sensors or reference sensors, respectively. For binding kinetic measurements, the association and dissociation of tested compounds (3.125–100 μM) in assay buffer (PBS, 0.02% Tween 20, 2% DMSO) were monitored at 25 °C with 1,000 rpm stirring for 90 s. For accurate baseline, wells containing assay buffer only were used as reference wells. All data were analysed by Octet BLI analysis software version 12.2 (Sartorius AG, Göttingen, Germany). The binding graphs were obtained using a double reference subtraction protocol and equilibrium dissociation constant (KD) values were calculated from the ratio of the dissociation rate constant (Kdis) to the association rate constant (Kon).

USP15 = conditions: cited from earlier work
[3] = compound 25 µM, 90-min endpoint, Ub-AMC

T1 sequence (P51784 whole entry): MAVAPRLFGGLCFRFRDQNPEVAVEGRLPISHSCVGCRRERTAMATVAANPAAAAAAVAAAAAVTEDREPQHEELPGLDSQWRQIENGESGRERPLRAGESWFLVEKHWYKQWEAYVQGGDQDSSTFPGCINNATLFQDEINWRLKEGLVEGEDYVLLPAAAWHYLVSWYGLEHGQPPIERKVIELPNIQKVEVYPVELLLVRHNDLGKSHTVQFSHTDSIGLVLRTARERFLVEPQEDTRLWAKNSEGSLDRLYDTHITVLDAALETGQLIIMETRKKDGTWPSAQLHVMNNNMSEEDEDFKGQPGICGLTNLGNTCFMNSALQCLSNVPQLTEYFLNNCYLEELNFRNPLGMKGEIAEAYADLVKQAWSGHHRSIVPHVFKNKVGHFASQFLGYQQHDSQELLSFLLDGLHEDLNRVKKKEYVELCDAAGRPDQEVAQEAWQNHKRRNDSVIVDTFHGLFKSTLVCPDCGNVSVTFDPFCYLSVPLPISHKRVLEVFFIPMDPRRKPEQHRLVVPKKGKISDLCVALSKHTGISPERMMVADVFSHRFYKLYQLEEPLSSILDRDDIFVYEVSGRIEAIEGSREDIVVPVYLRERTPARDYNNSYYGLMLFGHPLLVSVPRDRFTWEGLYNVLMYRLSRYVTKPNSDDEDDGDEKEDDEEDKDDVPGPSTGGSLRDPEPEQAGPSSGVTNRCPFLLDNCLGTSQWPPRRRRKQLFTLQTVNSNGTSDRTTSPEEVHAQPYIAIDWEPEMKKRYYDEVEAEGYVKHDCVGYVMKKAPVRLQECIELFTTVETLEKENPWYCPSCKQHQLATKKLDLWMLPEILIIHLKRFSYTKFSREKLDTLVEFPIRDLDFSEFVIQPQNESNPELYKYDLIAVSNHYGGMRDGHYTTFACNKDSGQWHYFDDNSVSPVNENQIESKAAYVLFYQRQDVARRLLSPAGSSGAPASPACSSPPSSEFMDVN

| inhibition at 25 µM (GST-USP11 [1]; [3]) [%] | SMILES | other results |
| --- | --- | --- |
| 38.1 | Nc1ccc(O)c2c1C(=O)c1c(cccc1[N+](=O)[O-])C2=O [Compound 74c] |  |
| 23 | CCCCOc1cc(CN2CCN(c3ccc(NC(=N)c4cccs4)cc3)CC2)cc(OCCCC)c1O [Compound 73e] |  |
| 7.89 | N#CC1CCCN1C(=O)CNCCN1CCN(c2ccc([N+](=O)[O-])c3nonc23)CC1 (centres unmarked) [Compound 18h] |  |
| 90.3 | CCCCCOc1cc(CN2CCN(c3ccc(NC(=N)c4ccc[nH]4)cc3)CC2)cc(OCCCCC)c1O [Compound 73a] | IC50 (GST-USP11 [1]; USP11, Figure S6): 17.5 µM |
|  | CC(C)[C@@H](CC[C@@H](C)[C@H]1CC[C@H]2[C@@H]3[C@H](O)C[C@H]4C[C@@H](NCCCNCCCCN)CC[C@]4(C)[C@H]3CC[C@]12C)OS(=O)(=O)O [Squalamine, squalamine] | Kd (GST-USP11 [2]): 459 µM; kon (GST-USP11 [2]; Figure 3c): 1380 M⁻¹ s⁻¹; koff (GST-USP11 [2]; Figure 3c, read-out: Kdis): 0.634 s⁻¹; Percent inhibition of USP11 (GST-USP11 [1]; [3]): completely inhibits; IC50 (GST-USP11 [1]; recombinant USP11): 8.29 µM |
| 43.9 | CCCCOc1cc(CN2CCN(c3ccc(NC(=N)c4ccc[nH]4)cc3)CC2)cc(OCCCC)c1O [Compound 73] |  |
| 27.9 | O=[N+]([O-])c1c(N2CCCCC2)cc(N2CCCCC2)c2nonc12 [Compound 18d] |  |
| 7.38 | Nc1ccc(NC(=O)c2ccccc2)c2c1C(=O)c1ccccc1C2=O [Compound 74f] |  |
|  | O=C1c2c(O)ccc(O)c2C(=O)c2c(NCCNCCO)ccc(NCCNCCO)c21 [Mitoxantrone, mitoxantrone] | USP15 inhibition in words (USP15): also inhibits USP15 |
| 38.1 | CCOc1cc(CN2CCN(c3ccc(NC(=N)c4ccc[nH]4)cc3)CC2)cc(OCC)c1O [Compound 73b] |  |
| 0 | CCOC(=O)CCNc1ccc(Nc2ccc(C)cc2)c2c1C(=O)c1ccccc1C2=O [Compound 74d] |  |
| 58.4 | NCCNc1ccc(NCCN)c2c1C(=O)c1ccncc1C2=O [Compound 74a] |  |
| 16.8 | CN(c1ccc(C=O)cc1)c1cccc2c1C(=O)c1ccccc1C2=O [Compound 74e] |  |
| 23 | CCCCCOc1cc(CN2CCN(c3ccc(NC(=N)c4cccs4)cc3)CC2)cc(OCCCCC)c1O [Compound 73d] |  |
| 89.9 | CCCCOc1cc(/C=C/C(=O)N2CCN(c3ccc(NC(=N)c4ccc[nH]4)cc3)CC2)cc(OCCCC)c1O [Compound 73f] | IC50 (GST-USP11 [1]; USP11, Figure S6): 19.4 µM |
| 76.8 | CCOc1cc(/C=C/C(=O)N2CCN(c3ccc(NC(=N)c4ccc[nH]4)cc3)CC2)cc(OCC)c1O [Compound 73c] |  |
| 41.5 | O=C(CCc1ccc(F)cc1)N/N=C/c1ccc(O)c(O)c1O [Compound 29] |  |
| 6.51 | O=C1c2ccccc2C(=O)c2c1cc(N1CCOCC1)cc2N1CCCCC1 [Compound 74g] |  |

| SMILES | inhibition at 25 µM (GST-USP11 [1]; [3]) [%] | other results |
| --- | --- | --- |
| NC1CCC(Nc2ccc([N+](=O)[O-])c3nonc23)CC1 (centres unmarked) [Compound 18e] | 64.8 |  |
| O=[N+]([O-])c1ccc(N2CCCCCC2)c2nonc12 [Compound 18c] | 36.9 |  |
| N#CC1CC=NN1C(=O)CNC1CCC(Nc2ccc([N+](=O)[O-])c3nonc23)CC1 (centres unmarked) [Compound 18g] | 70.9 |  |
| N#CC1CCCN1C(=O)CNC1CCCN(c2ccc([N+](=O)[O-])c3nonc23)C1 (centres unmarked) [Compound 18] | 55.8 |  |
| O=[N+]([O-])c1ccc(N2CCCCC2)c2nonc12 [Compound 18b] | 3.3 |  |
| N#CC1CCCN1C(=O)CNC1CCC(Nc2ccc([N+](=O)[O-])c3nonc23)CC1 (centres unmarked) [Compound 18f] | 23.8 |  |
| CC(CO)C1CCC2C3C(CCC12C)C1(C)CCC(NCCCCN)C[C@@H]1C[C@H]3O (some centres unmarked) [Compound 57] | 44.8 |  |
| O=[N+]([O-])c1ccc(N2CCCC2)c2nonc12 [Compound 18a] | 15 |  |
